Results taken from publication PMC9571594, “Development of Semisynthetic Apoptosis-Inducing Agents Based on Natural Phenolic Acids Scaffold: Design, Synthesis and In-Vitro Biological Evaluation” (Molecules, 2022).
Several values for one entry are separate records, joined by “and”; a condition that tells them apart may be missing. Equal entries are not always repeated. Where two headings read alike, the source gives them in different places.

Assays:
Assay type in all cases: cell-based
[1] = system: Caco-2 cells; test: Cell-cycle analysis by flow cytometry; settings: for %G0–G1 / %G2/M / %S / %Pre-G1: Caco-2 cells; for %G0–G1 / %G2/M / %S: cell-cycle distribution after treatment; for %Pre-G1: Pre-G1 = apoptotic population; for apoptotic population compared to the parent compound: Caco-2, in words, versus parent 1 or 2
Description: The potential candidates with anti-tumor effect on the Caco-2 cell line along with a high SI were chosen for cell-cycle analysis. The cell-cycle distribution and cell death were analyzed using Annexin V-FITC/PI staining and flow cytometry (Table 4, Figure 4).
In order to determine the percentage of viable, apoptotic and necrotic cells after treatment with our compounds, double-staining with fluorescein isothiocyanate (FITC) and PI was performed. Annexin V-FITC Apoptosis Detection Kit (BioVision, CA, USA) was used. Briefly, cultured Caco-2 were treated with the tested compounds or DMSO for 24h. Cells were then collected by centrifugation at 2000 rpm for 5 min, and the pellet was washed with PBS then centrifuged again at 2000 rpm for 5 min then resuspended in 500μL of the kit’s binding buffer before adding the Annexin V-FITC and PI. The cells were then incubated at room temperature in the dark for 5 min. […]
Assay : Cell Cycle Analysis
Kit used : ab139418_Propidium Iodide Flow Cytometry Kit/BD
Assay samples :Cell culture
(§1) Cpd. No. Cpd. No. Cpd. No. Cpd. No.

[2] = system: Caco-2 cancer cell line; test: MTT cell viability assay, Caco-2; settings: 48 h; for IC50: MTT, average of triplicates, semi-synthesized compounds (Table 3), read-out: IC50 (μM) on Caco-2 cancer cell line
Description: MCF-7 cells (Human breast adenocarcinoma), HepG2 (human hepatocellular carcinoma), A549 (human lung adenocarcinoma), Caco-2 (colon carcinoma), PANC-1 (human pancreatic cancer), and Vero cells (derived from normal kidney cells) were supplied by (Holding Company for Biological Products and Vaccines VACSERA; Giza, Egypt). The cells were cultured in PRMI 1640 medium (Lonza, Switzerland) supplemented with 10% fetal bovine serum (Gibco), 1% penicillin and 1% streptomycin (Sigma Aldrich, Saint Louis, MO, USA) at 37 °C under an atmosphere of 5% CO2 and 95% air.
The effect of parent compounds and their derivatives were assessed by (3-(4,5-dimethylthiazol-2-yl)-2,5diphenyl-tetrazolium bromide) MTT assay. […] After a merged sheet of cells developed, the growth media was decanted from the 96-well microtiter and refilled with different concentrations of compounds (µg/mL), and the plate was incubated at 37 °C for 48 h to minimize exposure to the dissolving agent (Supporting Information).
MTT solution (BIO BASIC CANADA INC) was prepared [5 mg/mL in phosphate buffered saline (PBS)], added to each well and incubated for 4 h, then after removing the media, 200 μL of DMSO was added to each well to solubilize the formazan crystals and the optical density of the formazan product was measured at 560 nm using microplate reader (mindray, MR-96A). The results were calculated as the mean of the three independent experiments. […]
Determination of sample cytotoxicity on cells (MTT protocol) […]
well) and incubated at 37°C for 24 hours to develop a complete monolayer sheet.
2- Growth medium was decanted from 96 well micro titer plates after confluent sheet of cells were formed, cell monolayer was washed twice with wash media.
3- two-fold dilutions of tested sample was made in RPMI medium with 2% serum […]
4- 0.1 ml of each dilution was tested in different wells leaving 3 wells as control, receiving only maintenance medium.
5- Plate was incubated at 37°C and examined. Cells were checked for any physical signs of toxicity, e.g. partial or complete loss of the monolayer, rounding, shrinkage, […]
6- MTT solution was prepared (5mg/ml in PBS) (BIO BASIC CANADA INC).
8- 20ul MTT solution were added to each well. Place on a shaking table, 150rpm for 5 minutes, to thoroughly mix the MTT into the media.
10) Dump off the media. (dry plate on paper towels to remove residue if necessary. […] 9 ش - ايلعلا هبضهلا - مطقملا / ىسيئرلا لمعملا […]

[3] = system: Caco-2 cells; test: Annexin V-FITC/PI apoptosis assay by flow cytometry; set-up: key: % of cells; settings: annexin-V FITC/PI staining, 24h
Description: In order to determine the percentage of viable, apoptotic and necrotic cells after treatment with our compounds, double-staining with fluorescein isothiocyanate (FITC) and PI was performed. Annexin V-FITC Apoptosis Detection Kit (BioVision, CA, USA) was used. Briefly, cultured Caco-2 were treated with the tested compounds or DMSO for 24h. Cells were then collected by centrifugation at 2000 rpm for 5 min, and the pellet was washed with PBS then centrifuged again at 2000 rpm for 5 min then resuspended in 500μL of the kit’s binding buffer before adding the Annexin V-FITC and PI. The cells were then incubated at room temperature in the dark for 5 min. Annexin V-FITC binding was measured using FACS Calibur flow cytometer (BD biosciences, USA) (Ex = 488 nm, Em = 533 nm, FL1 filter for annexin and FL2 filter for PI).

[4] = system: MMP-9; test: RT-qPCR gene expression of MMP-9; settings: for MMP9 Fold Change: Caco2, relative to cont.Caco2 = 1
Description: (§2) The treated cells were harvested and the total RNA was extracted using RNeasy Mini Kit (Qiagen) according to the manufacturer’s instruction. The primers of the required genes (Table 6) were used for SYBR Green qRT-PCR using a one-step RT-PCR kit with SYBR Green (Bio-Rad). qRT-PCR was performed on Rotor Gene Q (Qiagen). […] Rotor-Gene 6000 Series Software was used for data analysis. and their HGNC ID was added (Table 6)
(§3) Researcher : Dr/Noura email: mob.
(§4) Reader : Rotorgene RT- PCR system
(§5) Kit used : Qiagen RNA extraction/BioRad syber green PCR MMX
(§6) Assay samples :Cell culture Lysate
as §1

[5] = system: MMP-2; test: RT-qPCR gene expression of MMP-2; settings: for MMP2 Fold Change: Caco2, relative to cont.Caco2 = 1
Description: as §2, §3, §4, §5, §6, §1

| Molecule | IC50 ([2]; Homo sapiens, Caco-2) | %G0–G1 [1] | %G2/M [1] | %S [1] | %Pre-G1 [1] | Apoptosis Total [3] | Early Apoptosis [3] | Necrosis [3] | other results |
| --- | --- | --- | --- | --- | --- | --- | --- | --- | --- |
| (E)-3-(3-Hydroxy-4-methoxyphenyl)-N-(p-tolyl)acrylamide [Compound 14] | – | – | – | – | 16.51% and 16.51 ± 0.63% | 16.51 | 3.99 | 2.26 | IC50 [2]: 50 µM |
| Nc1ccccc1NC(=O)/C=C/c1ccc(O)c(O)c1 [Compound 11, (E)-N-(2-Aminophenyl)-3-(3,4-dihydroxyphenyl)acrylamide] | 10 µM | 41.09 ± 2.76% | 25.55 ± 2.47% | 33.36 ± 2.73% | 14.04% and 14.04 ± 0.95% | 14.04 | 2.47 | 2.07 | %G0–G1 ([1]; listed as CA12): 41.09%; %G2/M ([1]; listed as CA12): 25.55%; %S ([1]; listed as CA12): 33.36%; MMP9 Fold Change [4]: 0.30±0.006 Fold Change; MMP2 Fold Change [5]: 0.54±0.014 Fold Change; Late Apoptosis ([3]; listed as CA12): 9.5 |
| COc1ccc(NC(=O)/C=C/c2ccc(OC)c(O)c2)cc1 [Compound 13, (E)-3-(3-Hydroxy-4-methoxyphenyl)-N-(4-methoxyphenyl)acrylamide] | 80 µM | – | – | – | – | – | – | – | – |
| O=C(/C=C/c1ccc(O)c(O)c1)Nc1ccc(O)cc1 [Compound 4, (E)-3-(3,4-Dihydroxyphenyl)-N-(4-hydroxyphenyl)acrylamide] | 70 µM | – | – | – | – | – | – | – | – |
| COc1cccc2c1C(=O)c1c(O)c3c(c(O)c1C2=O)C[C@@](O)(C(=O)CO)C[C@@H]3O[C@H]1C[C@H](N)[C@H](O)[C@H](C)O1 [Doxorubicin] | – | – | – | – | – | – | – | – | IC50 (μM) ± SD Caco-2 [2]: 0.17 ± 1.1 µM |
| COc1ccc(NC(=O)/C=C/c2ccc(O)c(O)c2)cc1 [Compound 8, (E)-N-(4-Methoxyphenyl)-3-(3,4-dihydroxyphenyl)acrylamide] | 80 µM | – | – | – | – | – | – | – | – |
| COc1ccc(/C=C/C(=O)Nc2ccccc2N)cc1O [Compound 20, (E)-N-(2-Aminophenyl)-3-(3-hydroxy-4-methoxyphenyl)acrylamide] | – | 39.12 ± 2.58% | 26.84 ± 2.34% | 34.04 ± 2.69% | 8.62 ± 0.69% | 8.62 | 2.19 | 1.24 | apoptotic population compared to the parent compound [1]: non-significant decrease; %G0–G1 ([1]; listed as FA12): 39.12%; %G2/M ([1]; listed as FA12): 26.84%; %S ([1]; listed as FA12): 34.04%; %Pre-G1 ([1]; listed as FA12): 8.62%; MMP9 Fold Change [4]: 0.45±0.009 Fold Change; MMP2 Fold Change [5]: 0.68±0.018 Fold Change; Late Apoptosis [3]: 5.19 |
| (E)-3-(3-Hydroxy-4-methoxyphenyl)-N-(m-tolyl)acrylamide [Compound 17] | – | – | – | – | 12.11 ± 0.97% | 12.11 | 4.25 | 1.61 | apoptotic population compared to the parent compound [1]: non-significant decrease; %Pre-G1 ([1]; listed as FA8): 12.11%; IC50 [2]: 20 µM; expression of MMP9 (in words) ([4]; Figures 8 and 9): greatest inhibition; expression of MMP2 (in words) ([5]; Figures 8 and 9): greatest inhibition; Late Apoptosis [3]: 6.25 |
| O=C(/C=C/c1ccc(O)c(O)c1)N1CCN(c2ccccc2)CC1 [Compound 3, (E)-3-(3,4-Dihydroxyphenyl)-1-(4-phenylpiperazin-1-yl)prop-2-en-1-one] | 80 µM | – | – | – | – | – | – | – | – |

More lines, main results first:

| IC50 ([2]; Homo sapiens, Caco-2) | Molecule | %G0–G1 [1] | %G2/M [1] | %S [1] | %Pre-G1 [1] | Apoptosis Total [3] | Early Apoptosis [3] | Necrosis [3] | other results |
| --- | --- | --- | --- | --- | --- | --- | --- | --- | --- |
| 60 µM | Cc1ccc(NC(=O)/C=C/c2ccc(O)c(O)c2)cc1 [Compound 5, (E)-3-(3,4-Dihydroxyphenyl)-N-(p-tolyl)acrylamide] | 41.52 ± 2.61% | 26.86 ± 2.75% | 31.62 ± 1.79% | 7.56 ± 0.39% | 7.56 | 2.59 | 1.04 | %G0–G1 ([1]; listed as CA3): 41.52%; %G2/M ([1]; listed as CA3): 26.86%; %S ([1]; listed as CA3): 31.62%; %Pre-G1 ([1]; listed as CA3): 7.56%; Late Apoptosis [3]: 3.93 |
| 40 µM | COc1ccc(/C=C/C(=O)N2CCN(c3ccccc3)CC2)cc1O [Compound 12, (E)-3-(3-Hydroxy-4-methoxyphenyl)-1-(4-phenylpiperazin-1-yl)prop-2-en-1-one] | – | – | – | – | – | – | – | – |
| 50 µM | O=C(/C=C/c1ccc(O)c(O)c1)NC1CCCCC1 [Compound 6, (E)-N-Cyclohexyl-3-(3,4-dihydroxyphenyl)acrylamide] | – | – | – | – | – | – | – | – |
| 80 µM | COc1ccc(NC(=O)/C=C/c2ccc(O)c(OC)c2)cc1 [Compound 16, (E)-3-(4-Hydroxy-3-methoxyphenyl)-N-(4-methoxyphenyl)acrylamide] | – | – | – | – | – | – | – | – |
| 30 µM | O=C(/C=C/c1ccc(O)c(O)c1)NCc1ccccc1 [Compound 9, (E)-N-Benzyl-3-(3,4-dihydroxyphenyl)acrylamide] | 38.51 ± 1.95% | 30.05 ± 2.59% | 31.44 ± 2.87% | 9.62 ± 0.37% | 9.62 | 3.72 | 1.36 | %G0–G1 ([1]; listed as CA9): 38.51%; %G2/M ([1]; listed as CA9): 30.05%; %S ([1]; listed as CA9): 31.44%; %Pre-G1 ([1]; listed as CA9): 9.62%; Late Apoptosis [3]: 4.54 |
| 9 µM | O=C(/C=C/c1ccc(O)c(O)c1)Nc1ccc(Cl)cc1 [Compound 10, (E)-N-(4-Chlorophenyl)-3-(3,4-dihydroxyphenyl)acrylamide] | 29.75 ± 1.73% | 41.98 ± 2.18% | 28.27 ± 1.99% | 23.42% and 23.42 ± 2.12% | 23.42 | 7.59 | 3.14 | %G0–G1 ([1]; listed as CA11): 29.75%; %G2/M ([1]; listed as CA11): 41.98%; %S ([1]; listed as CA11): 28.27% |
